Reference: ChEMBL document CHEMBL5050846 (2020)
Calls of active or inactive are those of the source. The rule behind the calls is not given here.

Tests used:
[1] = Brain to plasma ratio in rat; type: ADME; settings: read-out: BPR
[2] = Half-life in rat; type: ADME; settings: in vivo
[3] = Cmax in rat; type: ADME; settings: in vivo
[4] = Tmax in rat; type: ADME; settings: in vivo
[5] = AUClast in rat; type: ADME; parameters: time 0 - last; settings: in vivo
[6] = tested on: Rattus norvegicus; test: Protection against harmaline-induced tremor in rats at 10 mg/kg; type: functional, organism-based
[7] = tested on: Rattus norvegicus; type: functional, organism-based; settings: dose 100.0 mg/kg
[8] = tested on: Canis familiaris; test: Effect on QRS duration of heart in dogs at 2 to 300 mg/kg, iv; type: toxicity, organism-based, Canis lupus familiaris; settings: dog, in vivo, dose 2-300 mg/kg
[9] = Toxicity in rabbits at 30 to 1000 mg/kg, po assessed as developmental toxicity; type: organism-based, Oryctolagus cuniculus; settings: rabbit, in vivo, dose 30-1000 mg/kg
[10] = tested on: Rattus norvegicus; test: Protection against amphetamine-induced psycho-motor activity in rat at 1 to 10 mg/kg, po; type: functional, organism-based; settings: dose 1-10 mg/kg
[11] = Toxicity in female Sprague-Dawley rats at 10 to 1000 mg/kg, po assessed as effect on fertility; type: organism-based; settings: rat, in vivo, dose 10-1000 mg/kg
[12] = tested on: Rattus norvegicus; type: functional, organism-based; settings: dose 10.0 mg/kg
[13] = tested on: Canis familiaris; test: Effect on heart rate in dogs at 10 mg/kg, iv; type: toxicity, organism-based, Canis lupus familiaris; settings: dog, in vivo
[14] = tested on: Canis familiaris; test: Effect on core body temperature in dogs at 2 to 300 mg/kg, iv; type: toxicity, organism-based, Canis lupus familiaris; settings: dog, in vivo, dose 2-300 mg/kg
[15] = species on record: Rattus norvegicus; test: Effect on sleep architecture of rats assessed as increase in slow wave sleep; type: functional, organism-based
[16] = tested on: Rattus norvegicus; test: Effect on neurobehavioral function in female rats at 30 to 3000 mg/kg, po; type: toxicity, organism-based; settings: in vivo, dose 30-3000 mg/kg
[17] = tested on: Canis familiaris; test: Effect on blood pressure in dogs at 2 to 300 mg/kg, iv; type: toxicity, organism-based, Canis lupus familiaris; settings: dog, in vivo, dose 2-300 mg/kg
[18] = tested on: Rattus norvegicus; test: Effect on neurobehavioral function in female rats assessed as increase in foot splay width at 15 mg/kg, po administered a single dose; type: toxicity, organism-based; settings: in vivo
[19] = Brain concentration in male rats at 25 mg/kg, po at 2 hrs using 1% methylcellulose; type: ADME, organism-based; settings: rat, read-out: Drug uptake
[20] = target: CYP3A5 (Homo sapiens, UniProt P20815); test: Inhibition of recombinant human CYP3A5 in human liver microsomes at 1 uM relative to control; type: ADME
Sequence of CYP3A5 (P20815 whole entry): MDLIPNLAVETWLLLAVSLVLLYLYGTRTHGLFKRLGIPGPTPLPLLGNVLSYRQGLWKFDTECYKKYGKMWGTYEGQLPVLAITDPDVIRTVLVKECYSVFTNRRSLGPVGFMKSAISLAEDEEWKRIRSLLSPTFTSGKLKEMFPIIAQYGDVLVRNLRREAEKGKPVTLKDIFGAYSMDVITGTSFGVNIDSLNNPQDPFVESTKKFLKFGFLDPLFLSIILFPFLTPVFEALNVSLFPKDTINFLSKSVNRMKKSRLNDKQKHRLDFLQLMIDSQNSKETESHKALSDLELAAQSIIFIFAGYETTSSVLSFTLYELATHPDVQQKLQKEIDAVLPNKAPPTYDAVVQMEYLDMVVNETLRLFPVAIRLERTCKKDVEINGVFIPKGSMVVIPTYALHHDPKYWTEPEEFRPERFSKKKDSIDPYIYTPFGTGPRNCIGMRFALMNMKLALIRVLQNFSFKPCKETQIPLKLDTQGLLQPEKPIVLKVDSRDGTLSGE

[21] = tested on: Canis familiaris; test: Effect on PR interval of heart in dogs at 2 to 300 mg/kg, iv; type: toxicity, organism-based, Canis lupus familiaris; settings: dog, in vivo, dose 2-300 mg/kg
[22] = target: T1, pregnane X receptor (PXR, NR1I2) (Homo sapiens, UniProt O75469); test: Activation of human pregnane X receptor at 10 uM relative to control; settings: read-out: Activity
T1 sequence (O75469 whole entry): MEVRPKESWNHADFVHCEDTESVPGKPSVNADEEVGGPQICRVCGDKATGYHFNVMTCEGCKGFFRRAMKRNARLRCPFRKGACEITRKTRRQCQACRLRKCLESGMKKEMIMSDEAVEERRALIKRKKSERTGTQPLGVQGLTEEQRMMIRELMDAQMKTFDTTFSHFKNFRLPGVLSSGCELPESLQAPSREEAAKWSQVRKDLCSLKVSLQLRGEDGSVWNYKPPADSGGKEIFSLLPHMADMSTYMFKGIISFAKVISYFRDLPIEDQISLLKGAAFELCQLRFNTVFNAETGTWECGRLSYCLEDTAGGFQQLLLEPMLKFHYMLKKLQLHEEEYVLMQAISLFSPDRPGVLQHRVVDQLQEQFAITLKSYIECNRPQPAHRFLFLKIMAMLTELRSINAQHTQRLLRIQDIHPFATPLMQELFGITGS

[23] = tested on: Rattus norvegicus; test: Effect on respiratory function in female rats assessed as increase in PenH at 300 to 2000 mg/kg, po; type: toxicity, organism-based; settings: in vivo, dose 300-2000 mg/kg
[24] = Toxicity in Sprague-Dawley rats at 30 to 1000 mg/kg, po assessed as developmental toxicity; type: organism-based; settings: rat, in vivo, dose 30-1000 mg/kg
[25] = tested on: Rattus norvegicus; test: Effect on neurobehavioral function in female rats at 30 mg/kg, po administered a single dose at 2 hrs; type: toxicity, organism-based; settings: in vivo
[26] = Toxicity in female Sprague-Dawley rats at 10 to 1000 mg/kg, po; type: organism-based; settings: rat, in vivo, dose 10-1000 mg/kg
[27] = Plasma concentration in male rats at 25 mg/kg, po at 2 hrs using 90% PEG400; type: ADME, organism-based; settings: rat
[28] = tested on: Canis familiaris; test: Effect on QTc interval of heart in dogs at 2 to 300 mg/kg, iv; type: toxicity, organism-based, Canis lupus familiaris; settings: dog, in vivo, dose 2-300 mg/kg
[29] = target: CYP3A4 (Homo sapiens, UniProt P08684); test: Inhibition of recombinant human CYP3A4 in human liver microsomes at 1 uM relative to control; type: ADME
Sequence of CYP3A4 (P08684 whole entry): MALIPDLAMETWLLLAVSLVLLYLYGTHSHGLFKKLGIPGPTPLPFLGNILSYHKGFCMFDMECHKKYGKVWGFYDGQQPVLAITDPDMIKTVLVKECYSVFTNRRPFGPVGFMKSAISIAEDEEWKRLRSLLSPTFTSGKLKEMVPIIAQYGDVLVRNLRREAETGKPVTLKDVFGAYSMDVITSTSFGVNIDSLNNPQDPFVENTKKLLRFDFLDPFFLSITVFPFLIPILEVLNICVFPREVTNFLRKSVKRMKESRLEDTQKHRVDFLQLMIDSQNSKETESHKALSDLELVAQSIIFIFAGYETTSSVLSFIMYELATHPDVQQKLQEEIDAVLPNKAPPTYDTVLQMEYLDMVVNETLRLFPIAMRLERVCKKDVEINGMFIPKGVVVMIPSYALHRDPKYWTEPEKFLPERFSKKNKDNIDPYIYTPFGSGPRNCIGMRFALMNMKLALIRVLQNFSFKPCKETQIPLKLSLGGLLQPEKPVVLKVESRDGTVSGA

[30] = tested on: Rattus norvegicus; test: Effect on respiratory function in male rats assessed as change in airway resistance at 6 mg/kg, iv; type: toxicity, organism-based; settings: in vivo
[31] = species on record: Rattus norvegicus; test: Effect on sleep architecture of rats assessed as increase in rapid eye movement sleep late in sleep period; type: functional, organism-based
[32] = Oral bioavailability in dog at 0.5 mg/kg; type: ADME, organism-based, Canis lupus familiaris; settings: in vivo
[33] = Brain concentration in male rats at 25 mg/kg, po at 2 hrs using 90% PEG400; type: ADME, organism-based; settings: rat, read-out: Drug uptake
[34] = tested on: Rattus norvegicus; test: Effect on respiratory function in female rats assessed as increase in PenH at 30 mg/kg, po; type: toxicity, organism-based; settings: in vivo
[35] = Toxicity in rats at 10 to 1000 mg/kg, po assessed as developmental toxicity; type: organism-based; settings: rat, in vivo, dose 10-1000 mg/kg
[36] = tested on: Rattus norvegicus; test: Effect on neurobehavioral function in female rats at 30 mg/kg, po administered a single dose at 24 hrs; type: toxicity, organism-based; settings: in vivo
[37] = Clearance in dog at 0.5 mg/kg, po; type: ADME, organism-based, Canis lupus familiaris; settings: in vivo
[38] = Toxicity in rabbits at 30 to 1000 mg/kg, po assessed as maternal toxicity; type: organism-based, Oryctolagus cuniculus; settings: rabbit, in vivo, 672 h, dose 30-1000 mg/kg, time 4 weeks
[39] = Toxicity in Sprague-Dawley rats at 30 to 2000 mg/kg, po assessed as micronuclei induction in bone marrow; type: organism-based; settings: rat, in vivo, dose 30-2000 mg/kg
[40] = species on record: Rattus norvegicus; test: Effect on sleep architecture of rats assessed as decrease in rapid eye movement sleep early in sleep period; type: functional, organism-based
[41] = tested on: Canis familiaris; test: Effect on QTc interval of heart in dogs at 10 mg/kg, iv; type: toxicity, organism-based, Canis lupus familiaris; settings: dog, in vivo
[42] = Plasma concentration in male rats at 25 mg/kg, po at 2 hrs using 1% methylcellulose; type: ADME, organism-based; settings: rat
[43] = tested on: Hepatocyte; test: Induction of […] mRNA production in primary human hepatocytes at 10 uM relative to control; type: functional, cell-based
[44] = Induction of CYP3A4 mRNA production in primary human hepatocytes at 10 uM relative to control; type: functional, Hepatocyte
[45] = Toxicity in Beagle dogs at 3 to 300 mg/kg, po measured by 10-day extrapolatory dose-range finding study; type: organism-based, Canis lupus familiaris; settings: dog, in vivo, 240 h, dose 3-300 mg/kg
[46] = tested on: Rattus norvegicus; type: functional, organism-based; settings: dose 3-30 mg/kg
[47] = tested on: Canis familiaris; test: Effect on QRS duration of heart in dogs at 10 mg/kg, iv; type: toxicity, organism-based, Canis lupus familiaris; settings: dog, in vivo
[48] = Toxicity in Sprague-Dawley rats at 30 to 1000 mg/kg, po assessed as maternal toxicity; type: organism-based; settings: rat, in vivo, dose 30-1000 mg/kg
[49] = Half-life in dog at 0.5 mg/kg, po; type: ADME, organism-based, Canis lupus familiaris; settings: in vivo

N#Cc1ccc([C@@]2(C3CC3)c3cc(Cl)ccc3NC(=O)N2CC(F)(F)F)cc1
Kp [1]: 1.1 | half-life [2]: 5.9 h | Cmax [3]: 3 µM

C[C@@H](NC(=O)Cc1ccc(C2CC2)cc1)c1ccc(OCC(F)(F)F)cn1
Kp [1]: 0.27 | half-life [2]: 1.5 h | Cmax [3]: 7.5 µM | Tmax [4]: 0.3 h | AUC(0-t) [5]: 30 µM·h

CC1(C)C[C@@H](CN2CCC(F)(CNC(=O)c3cc(Cl)cc(Cl)c3)CC2)CCO1
Activity [6]: Active

CCC1(C)CC(=O)NC1=O (configuration not stated)
Activity [7]: Active

CC(C)c1ccc(CC(=O)N[C@H](C)c2ccc(OCC(F)(F)F)cn2)cc1 [SUVECALTAMIDE]
Activity [8]: Non-Toxic | Activity [9]: Toxic | Activity [10]: Active | NOAEL [11]: ≥ 1000 mg/kg/day | Activity [12]: Active | Activity [13]: Non-Toxic | Activity [14]: Non-Toxic | Activity [15]: Active | Activity [16]: Non-Toxic | Activity [17]: Non-Toxic | Activity [18]: Toxic | concentration at 2 h [19]: 3.1 µM | inhibition at 1 µM [20]: > 80% | Activity [21]: Non-Toxic | activity at 10 µM [22]: ≤ 34% | Activity [23]: Non-Toxic | Activity [24]: Toxic | Activity [25]: Non-Toxic | NOAEL [26]: 100 mg/kg/day | concentration at 2 h [27]: 3.3 µM | Activity [28]: Non-Toxic | inhibition at 1 µM [29]: > 80% | Activity [30]: Non-Toxic | Activity [31]: Active | bioavailability [32]: 47% | concentration at 2 h [33]: 1.8 µM | Activity [34]: Non-Toxic | Activity [35]: Non-Toxic | Activity [36]: Non-Toxic | CL/F [37]: 0.4 mL/min/kg | Activity [38]: Toxic | Activity [39]: Non-Toxic | Activity [40]: Active | Activity [41]: Non-Toxic | concentration at 2 h [42]: 6.3 µM | Activity [43]: Active | Activity [44]: <=10% | Activity [45]: Non-Toxic | Activity [46]: Active | Activity [47]: Non-Toxic | Activity [48]: Toxic | t1/2 [49]: 3.1 h
